Read-outs that look alike come from different tables or passages of the source.
Experiments:
NCI-H358 (K-Ras G12C) = assay: CellTiter-Glo cell viability assay, 5-day treatment; assay type: cell-based; settings: Homo sapiens, NCI-H358, 120 h, 5-day treatment; read-out: H358 Cell Viability assay data (K-Ras G12C, IC50)
Procedure, shortened: (§1)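 Luminescence read-out after 5 days of compound exposure, with plates first brought to room temperature for roughly 30 minutes. Values are percent of averaged DMSO wells, fitted by four-parameter logistic regression.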

Capan-1 (K-Ras G12V) = assay: as above; assay type: cell-based; settings: Homo sapiens, CAPAN-1, 120 h, 5-day treatment; read-out: Capan-1 Cell Viability assay data (K-Ras G12V, IC50)
Procedure, shortened: as §1

KRAS G12V = KRAS G12V (Homo sapiens, UniProt P01116+P62937, G12V); assay: Disruption of BRAF RBD interaction with Ras (FRET / MOA assay, with Cyclophilin A); assay type: biochemical
Procedure, shortened: (§2)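 Cyclophilin A-dependent ternary complex assay. K-Ras loaded with nucleotide; BRAF RBD as effector. Cpd top 30 μM final, 3 h at 25 °C. Readout: TR-FRET ratio, IC50.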

KRAS G12C = KRAS G12C (Homo sapiens, UniProt P01116+P62937, G12C); assay: as above; assay type: biochemical
Procedure, shortened: as §2

NRAS G12C = NRAS G12C (Homo sapiens, UniProt P01111+P62937, G12C); assay: as above; assay type: biochemical
KRAS G13C = KRAS G13C (Homo sapiens, UniProt P01116+P62937, G13C); assay: as above; assay type: biochemical
Procedure, shortened: as §2

KRAS G12S = KRAS G12S (Homo sapiens, UniProt P01116+P62937, G12S); assay: as above; assay type: biochemical
Procedure, shortened: as §2

KRAS G12D = KRAS G12D (Homo sapiens, UniProt P01116+P62937, G12D); assay: as above; assay type: biochemical
Procedure, shortened: as §2

KRAS G13D = KRAS G13D (Homo sapiens, UniProt P01116+P62937, G13D); assay: as above; assay type: biochemical
Procedure, shortened: as §2

KRAS WT = KRAS WT (Homo sapiens, UniProt P01116+P62937); assay: as above; assay type: biochemical
Procedure, shortened: as §2

[1] = KRAS G12V, read-out: KRAS G12V FRET data IC50
[2] = read-out: KRAS G12C FRET data, IC50
[3] = NRAS G12C, read-out: NRAS G12C FRET data IC50
[4] = read-out: KRAS G13C FRET data, IC50
[5] = read-out: KRAS G12S FRET data, IC50
[6] = read-out: KRAS G12D FRET data, IC50
[7] = KRAS G13D, read-out: KRAS G13D FRET data IC50
[8] = KRAS WT, read-out: KRAS WT FRET data IC50
[9] = KRAS G12V FRET data IC50, KRAS G12V
[10] = NRAS G12C FRET data IC50, NRAS G12C
[11] = KRAS G13D FRET data IC50, KRAS G13D
[12] = KRAS WT FRET data IC50, KRAS WT

KRAS G12D, sequence (P01116 1-169 isoform P01116-2 G12D limits assumed): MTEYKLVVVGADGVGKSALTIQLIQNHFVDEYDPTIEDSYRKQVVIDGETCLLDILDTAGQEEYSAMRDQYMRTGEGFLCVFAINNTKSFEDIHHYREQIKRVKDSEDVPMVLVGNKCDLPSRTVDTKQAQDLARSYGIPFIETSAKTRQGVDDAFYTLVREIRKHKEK
KRAS G12D, sequence (P62937 whole entry): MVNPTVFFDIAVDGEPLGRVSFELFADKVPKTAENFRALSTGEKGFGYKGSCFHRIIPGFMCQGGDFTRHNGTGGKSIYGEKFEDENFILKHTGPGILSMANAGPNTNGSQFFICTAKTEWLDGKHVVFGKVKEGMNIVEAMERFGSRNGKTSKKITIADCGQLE
KRAS G12S, sequence (P01116 1-169 isoform P01116-2 G12S limits assumed): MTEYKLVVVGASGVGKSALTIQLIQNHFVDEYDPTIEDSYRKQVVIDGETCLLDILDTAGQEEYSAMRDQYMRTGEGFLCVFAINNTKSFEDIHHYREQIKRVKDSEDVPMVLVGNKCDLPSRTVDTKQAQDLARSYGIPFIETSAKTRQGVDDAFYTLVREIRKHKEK
KRAS G12S, sequence (P62937 whole entry): as the sequence (P62937 whole entry) above
KRAS WT, sequence (P01116 1-169 isoform P01116-2 limits assumed): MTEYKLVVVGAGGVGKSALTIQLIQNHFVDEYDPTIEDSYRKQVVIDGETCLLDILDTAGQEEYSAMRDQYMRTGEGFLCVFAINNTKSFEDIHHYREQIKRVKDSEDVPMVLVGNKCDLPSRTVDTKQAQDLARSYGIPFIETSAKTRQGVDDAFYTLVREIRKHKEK
KRAS WT, sequence (P62937 whole entry): as the sequence (P62937 whole entry) above
KRAS G13D, sequence (P01116 1-169 isoform P01116-2 G13D limits assumed): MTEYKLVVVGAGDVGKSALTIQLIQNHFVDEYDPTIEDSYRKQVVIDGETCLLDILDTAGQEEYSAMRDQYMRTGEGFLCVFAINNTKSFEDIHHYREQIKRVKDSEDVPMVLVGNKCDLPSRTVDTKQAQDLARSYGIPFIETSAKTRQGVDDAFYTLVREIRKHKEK
KRAS G13D, sequence (P62937 whole entry): as the sequence (P62937 whole entry) above
KRAS G12C, sequence (P01116 1-169 isoform P01116-2 G12C): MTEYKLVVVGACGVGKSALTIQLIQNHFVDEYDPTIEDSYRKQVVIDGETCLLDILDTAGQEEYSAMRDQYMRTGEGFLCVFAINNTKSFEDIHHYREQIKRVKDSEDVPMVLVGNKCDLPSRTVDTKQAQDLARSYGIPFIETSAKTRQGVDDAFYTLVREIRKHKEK
KRAS G12C, sequence (P62937 whole entry): as the sequence (P62937 whole entry) above
NRAS G12C, sequence (P01111 whole entry G12C): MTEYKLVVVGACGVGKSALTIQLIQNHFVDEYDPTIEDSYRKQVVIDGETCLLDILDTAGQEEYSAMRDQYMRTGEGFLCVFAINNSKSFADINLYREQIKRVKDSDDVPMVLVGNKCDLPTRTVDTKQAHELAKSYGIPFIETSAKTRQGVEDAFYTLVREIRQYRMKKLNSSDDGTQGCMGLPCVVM
NRAS G12C, sequence (P62937 whole entry): as the sequence (P62937 whole entry) above
KRAS G13C, sequence (P01116 1-169 isoform P01116-2 G13C): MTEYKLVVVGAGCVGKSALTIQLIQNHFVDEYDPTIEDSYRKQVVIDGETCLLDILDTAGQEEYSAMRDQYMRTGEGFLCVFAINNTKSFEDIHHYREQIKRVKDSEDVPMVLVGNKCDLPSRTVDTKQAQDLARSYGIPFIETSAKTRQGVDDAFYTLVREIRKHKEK
KRAS G13C, sequence (P62937 whole entry): as the sequence (P62937 whole entry) above
KRAS G12V, sequence (P01116 1-169 isoform P01116-2 G12V limits assumed): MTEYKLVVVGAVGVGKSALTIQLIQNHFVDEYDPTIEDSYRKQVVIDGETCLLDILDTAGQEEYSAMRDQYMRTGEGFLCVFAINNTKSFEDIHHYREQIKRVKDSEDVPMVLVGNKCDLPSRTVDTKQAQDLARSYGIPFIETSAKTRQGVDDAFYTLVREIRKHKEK
KRAS G12V, sequence (P62937 whole entry): as the sequence (P62937 whole entry) above

With CCn1c(-c2cccnc2[C@H](C)OC)c2c3cc(ccc31)-c1cc(O)cc(c1)C[C@H](NC(=O)[C@H](C(C)C)N(C)C(=O)C1CC3CC1CN3)C(=O)N1CCC[C@H](N1)C(=O)OCC(C)(C)C2 (some centres unmarked) [Example A133] the IC50 (NCI-H358 (K-Ras G12C)) was greater than 10000 nM, the IC50 (Capan-1 (K-Ras G12V)) was greater than 10000 nM and the IC50 (KRAS G12V; [1]) was 1000 to 10000 nM. The IC50 (KRAS G12C; [2]) was 100 to 1000 nM, the IC50 (NRAS G12C; [3]) was 100 to 1000 nM and the IC50 (KRAS G13C; [4]) was 10 to 100 nM. For the same compound, the IC50 (KRAS G12S; [5]) was 100 to 1000 nM, the IC50 (KRAS G12D; [6]) was 10 to 100 nM and the IC50 (KRAS G13D; [7]) was 10 to 100 nM. For the same compound, the IC50 (KRAS WT; [8]) was 100 to 1000 nM.

CCn1c(-c2cccnc2[C@H](C)OC)c2c3cc(ccc31)-c1csc(n1)C[C@H](NC(=O)[C@H](C(C)C)N(C)C(=O)[C@@H]1C[C@@H]1C)C(=O)N1CCC[C@H](N1)C(=O)OCC(C)(C)C2 [Example A239] showed an IC50 (NCI-H358 (K-Ras G12C)) of 100 to 1000 nM, an IC50 (Capan-1 (K-Ras G12V)) of 100 to 1000 nM and an IC50 (KRAS G12V; [1]) of 1000 to 10000 nM. It also gave an IC50 (KRAS G12C; [2]) of 1000 to 10000 nM, an IC50 (NRAS G12C; [3]) of 1000 to 10000 nM and an IC50 (KRAS G13C; [4]) of 1000 to 10000 nM. The IC50 (KRAS G12S; [5]) was 1000 to 10000 nM, the IC50 (KRAS G12D; [6]) was 1000 to 10000 nM and the IC50 (KRAS G13D; [7]) was 1000 to 10000 nM. For the same compound, the IC50 (KRAS WT; [8]) was 1000 to 10000 nM.

CCN1C[C@@H](C(=O)N(C)[C@H](C(=O)N[C@H]2Cc3cc(O)cc(c3)-c3ccc4c(c3)c(c(-c3cnccc3COC)n4CC)CC(C)(C)COC(=O)[C@@H]3CCCN(N3)C2=O)C(C)C)CC1=O [Example A262] showed an IC50 (NCI-H358 (K-Ras G12C)) of 1000 to 10000 nM, an IC50 (Capan-1 (K-Ras G12V)) of 1000 to 10000 nM and an IC50 (KRAS G12V; [9]) of 100 to 1000 nM. The IC50 (KRAS G12C; KRAS G12C FRET data, IC50) was 10 to 100 nM, the IC50 (NRAS G12C; [10]) was 100 to 1000 nM and the IC50 (KRAS G13C; KRAS G13C FRET data, IC50) was 100 to 1000 nM. It also gave an IC50 (KRAS G12S; KRAS G12S FRET data, IC50) of 100 to 1000 nM, an IC50 (KRAS G12D; KRAS G12D FRET data, IC50) of 1000 to 10000 nM and an IC50 (KRAS G13D; [11]) of 100 to 1000 nM. For the same compound, the IC50 (KRAS WT; [12]) was 100 to 1000 nM.

Work on CCn1c(-c2cccnc2[C@H](C)OC)c2c3cc(ccc31)-c1cc(O)cc(c1)C[C@H](NC(=O)[C@H](C(C)C)N(C)C(=O)C1(O)CC1)C(=O)N1CCC[C@H](N1)C(=O)OCC(C)(C)C2 (atropisomer, axis not shown) [Example A132] yielded an IC50 (NCI-H358 (K-Ras G12C)) of 100 to 1000 nM, an IC50 (Capan-1 (K-Ras G12V)) of 10 to 100 nM and an IC50 (KRAS G12V; [1]) of 100 to 1000 nM. The IC50 (KRAS G12C; [2]) was 10 to 100 nM, the IC50 (NRAS G12C; [3]) was 100 to 1000 nM and the IC50 (KRAS G13C; [4]) was 10 to 100 nM. It also gave an IC50 (KRAS G12S; [5]) of 100 to 1000 nM, an IC50 (KRAS G12D; [6]) of 100 to 1000 nM and an IC50 (KRAS G13D; [7]) of 100 to 1000 nM. It also gave an IC50 (KRAS WT; [8]) of 100 to 1000 nM.

CCn1c(-c2cccnc2[C@H](C)OC)c2c3cc(ccc31)-c1cc(O)cc(c1)C[C@H](NC(=O)[C@H](C(C)C)N(C)C(=O)[C@H]1C[C@H](O)C1)C(=O)N1CCC[C@H](N1)C(=O)OCC(C)(C)C2 [Example A241] showed an IC50 (NCI-H358 (K-Ras G12C)) of 100 to 1000 nM, an IC50 (Capan-1 (K-Ras G12V)) of 100 to 1000 nM and an IC50 (KRAS G12V; [1]) of 100 to 1000 nM. The IC50 (KRAS G12C; [2]) was 10 to 100 nM, the IC50 (NRAS G12C; [3]) was 100 to 1000 nM and the IC50 (KRAS G13C; [4]) was 10 to 100 nM. The IC50 (KRAS G12S; [5]) was 100 to 1000 nM, the IC50 (KRAS G12D; [6]) was 100 to 1000 nM and the IC50 (KRAS G13D; [7]) was 100 to 1000 nM. It also gave an IC50 (KRAS WT; [8]) of 10 to 100 nM.

For CCn1c(-c2cccnc2[C@H](C)OC)c2c3cc(ccc31)-c1csc(n1)C[C@H](NC(=O)[C@H](C(C)C)N(C)C(=O)NC)C(=O)N1CCC[C@H](N1)C(=O)OCC(C)(C)C2 [Example A137], the IC50 (NCI-H358 (K-Ras G12C)) was 100 to 1000 nM, the IC50 (Capan-1 (K-Ras G12V)) was 100 to 1000 nM and the IC50 (KRAS G12V; [1]) was 100 to 1000 nM. For the same compound, the IC50 (KRAS G12C; [2]) was 100 to 1000 nM, the IC50 (NRAS G12C; [3]) was 100 to 1000 nM and the IC50 (KRAS G13C; [4]) was 1000 to 10000 nM. For the same compound, the IC50 (KRAS G12S; [5]) was 1000 to 10000 nM, the IC50 (KRAS G12D; [6]) was 1000 to 10000 nM and the IC50 (KRAS G13D; [7]) was 1000 to 10000 nM. It also gave an IC50 (KRAS WT; [8]) of 100 to 1000 nM.

Compound CCn1c(-c2cccnc2[C@H](C)OC)c2c3cc(ccc31)-c1cc(O)cc(c1)C[C@H](NC(=O)[C@H](C(C)C)N(C)C(=O)C1(N)CC1)C(=O)N1CCC[C@H](N1)C(=O)OCC(C)(C)C2 [Example A168] has an IC50 (NCI-H358 (K-Ras G12C)) of 100 to 1000 nM, an IC50 (Capan-1 (K-Ras G12V)) of 100 to 1000 nM and an IC50 (KRAS G12V; [1]) of 100 to 1000 nM. It also gave an IC50 (KRAS G12C; [2]) of 10 to 100 nM, an IC50 (NRAS G12C; [3]) of 10 to 100 nM and an IC50 (KRAS G13C; [4]) of 10 to 100 nM. For the same compound, the IC50 (KRAS G12S; [5]) was 100 to 1000 nM, the IC50 (KRAS G12D; [6]) was 100 to 1000 nM and the IC50 (KRAS G13D; [7]) was 100 to 1000 nM. It also gave an IC50 (KRAS WT; [8]) of 10 to 100 nM.

Compound CCn1c(-c2cnccc2COC)c2c3cc(ccc31)-c1cc(O)cc(c1)C[C@H](NC(=O)[C@H](C(C)C)N(C)C(=O)C1CCN(C)CC1)C(=O)N1CCC[C@H](N1)C(=O)OCC(C)(C)C2 [Example A84] has an IC50 (NCI-H358 (K-Ras G12C)) greater than 10000 nM, an IC50 (Capan-1 (K-Ras G12V)) greater than 10000 nM and an IC50 (KRAS G12V; [9]) of 1000 to 10000 nM. The IC50 (KRAS G12C; KRAS G12C FRET data, IC50) was 100 to 1000 nM, the IC50 (NRAS G12C; [10]) was 1000 to 10000 nM and the IC50 (KRAS G13C; KRAS G13C FRET data, IC50) was 100 to 1000 nM. For the same compound, the IC50 (KRAS G12S; KRAS G12S FRET data, IC50) was 100 to 1000 nM, the IC50 (KRAS G12D; KRAS G12D FRET data, IC50) was 1000 to 10000 nM and the IC50 (KRAS G13D; [11]) was 100 to 1000 nM. The IC50 (KRAS WT; [12]) was 100 to 1000 nM.

Reference: patent US20230233569A1 (Revolution Medicines, Inc., priority 2020, published 2023)
